Test results: patent publication US8815503B2, “Compositions and methods for immunostimulatory RNA oligonucleotides” (Rheinische Friedrich-Wilhelms-Universitat Bonn, priority 2005, dated 2014)

test system: PBMC; assay: 193 ssRNA 4mer-motif library screen: IL-12 (IL-12p40) production in PBMC of six donors, poly-L-Arg complexation, ELISA at 44 hours, IL-12 index and adjusted IL-12 index; assay type: cell-based, human; design: key to Adjusted IL-12 index Mean: IL-12 index (ratio to 9.2sense) minus donor mean, averaged over 6 donors; details: 193 ssRNA oligonucleotide library; data from six individual donors summarized; ascending order
Method: FIG. 9: PBMC of six different healthy donors were isolated and stimulated with poly-L-arginine complexed ssRNA oligonucleotides in duplicates. 44 hours after stimulation IL-12p40 production was assessed in supernatant via ELISA. For all tested ssRNA oligonucleotides (table 3), the mean values of the measured duplicates were normalized to the positive control ssRNA oligonucleotide 9.2sense (5′-AGCUUAACCUGUCCUUCAA (SEQ ID NO: 194)) by dividing the mean value of tested oligonucleotide by the mean value of 9.2sense (=IL-12 index of a given oligonucleotide). Next, all individual IL-12 indices were adjusted to the mean value of all IL-12 indices by subtracting the mean value of all IL-12 indices from the individual IL-12 index of a given oligonucleotide (=adjusted IL-12 index). Data from six individual donors were summarized and were assorted in ascending order displaying the corresponding SEM (for a complete listing including numerical data see table 4). FIG. 9A discloses SEQ ID NOS 460-509, respectively, in order of appearance. FIG. 9B discloses SEQ ID NOS 510-559, respectively, in order of appearance. FIG. 9C discloses SEQ ID NOS 560-609, respectively, in order of appearance. FIG. 9D discloses SEQ ID NOS 610-652, respectively, in order of appearance.
All 193 ssRNA oligonucleotides were tested on PBMC of six individual healthy donors using poly-L-Arg for complexation. At 44 hours after stimulation with RNA oligonucleotides, supernatants were collected and IL-12 production was measured by ELISA. Prior to statistical analysis the raw data were processed as follows: for each cell culture plate the mean IL-12 value of the experimental duplicates for each tested ssRNA oligonucleotide were normalized to the ssRNA oligonucleotide RNA9.2sense (5′-AGCUUAACCUGUCCUUCAA-3′ (SEQ ID NO: 194)). This standard RNA oligonucleotide was included as a positive control on all cell culture plates. Normalization was performed by calculating the ratio of IL-12 induced by the tested oligonucleotide and IL-12 induced by the standard oligonucleotide RNA9.2sense. Thus, for each tested oligonucleotide in an individual donor a mean ratio of IL-12 induction was obtained. In the following, this mean of the ratios is referred to as IL-12 index (one value of IL-12 index per donor). […] The corresponding IL-12 index of oligonucleotide ANP175 for donor 3 was calculated to be 1.90 (=1725 pg/ml divided by 908 pg/ml).
Next, the means of all IL-12 indices for every individual donor were calculated. Then the adjusted IL-12 indices were calculated as IL-12 index minus the mean of all IL-12 indices of one individual donor. […] The adjusted IL-12 index of ANP175 was calculated: 1.90 minus 0.44=1.46. The adjusted IL-12 indices from all six donors were summarized by calculating the means and the corresponding standard error of mean. The data are depicted in ascending order (FIG. 9A, B, C, D). The adjusted IL-12 indices of the top thirty ssRNA oligonucleotides of all six donors were compared using a two-tailed Student's t-test (FIG. 10). For most combinations tested, a significant difference was observed when the interval between the analyzed pairs was at least eight or nine places in the assortment.

Substance | Adjusted IL-12 index Mean
AAAAAAACAUGAAAAAAAA (RNA, backbone not given here) [ANP-Oligo 060] | −0.46
AAAAAAACAUUAAAAAAAA (RNA, backbone not given here) [ANP-Oligo 061] | −0.23
AAAAAAACCACAAAAAAAA (RNA, backbone not given here) [ANP-Oligo 062] | −0.66
AAAAAAACCAGAAAAAAAA (RNA, backbone not given here) [ANP-Oligo 063] | −0.57
AAAAAAACCAUAAAAAAAA (RNA, backbone not given here) [ANP-Oligo 064] | −0.38
AAAAAAACCCCAAAAAAAA (RNA, backbone not given here) [ANP-Oligo 065] | −0.59
AAAAAAACCCGAAAAAAAA (RNA, backbone not given here) [ANP-Oligo 066] | −0.62
AAAAAAACCCUAAAAAAAA (RNA, backbone not given here) [ANP-Oligo 067] | −0.3
AAAAAAACCGCAAAAA4AA (DNA AAAAAAACCGCAAAAAAAA; RNA, backbone not given here) [ANP-Oligo 068] | −0.56
AAAAAAACCGGAAAAAAAA (RNA, backbone not given here) [ANP-Oligo 069] | −0.64
AAAAAAACCGUAAAAAAAA (RNA, backbone not given here) [ANP-Oligo 070] | −0.16
AAAAAAACCUCAAAAAAAA (RNA, backbone not given here) [ANP-Oligo 071] | −0.56
AAAAAAACCUGAAAAAAAA (RNA, backbone not given here) [ANP-Oligo 072] | −0.51
AAAAAAACCUUAAAAAAAA (RNA, backbone not given here) [ANP-Oligo 073] | −0.28
AAAAAAACGACAAAAAAAA (RNA, backbone not given here) [ANP-Oligo 074] | −0.6
AAAAAAACGAGAAAAAAAA (RNA, backbone not given here) [ANP-Oligo 075] | −0.65
AAAAAAACGAUAAAAAAAA (RNA, backbone not given here) [ANP-Oligo 076] | 0.02
AAAAAAACGCCAAAAAAAA (RNA, backbone not given here) [ANP-Oligo 077] | −0.62
AAAAAAACGCGAAAAAAAA (RNA, backbone not given here) [ANP-Oligo 078] | −0.59
AAAAAAACGCUAAAAAAAA (RNA, backbone not given here) [ANP-Oligo 079] | −0.09

Substance | Adjusted IL-12 index Mean
AAAAAAACGGCAAAAAAAA (RNA, backbone not given here) [ANP-Oligo 080] | −0.65
AAAAAAACGGGAAAAAAAA (RNA, backbone not given here) [ANP-Oligo 081] | −0.63
AAAAAAACGGUAAAAAAAA (RNA, backbone not given here) [ANP-Oligo 082] | 0.29
AAAAAAACGUCAAAAAAAA (RNA, backbone not given here) [ANP-Oligo 083] | −0.27
AAAAAAACGUGAAAAAAAA (RNA, backbone not given here) [ANP-Oligo 084] | −0.2
AAAAAAACGUUAAAAAAAA (RNA, backbone not given here) [ANP-Oligo 085] | 0.57
AAAAAAACUACAAAAAAAA (RNA, backbone not given here) [ANP-Oligo 086] | −0.46
AAAAAAACUAGAAAAAAAA (RNA, backbone not given here) [ANP-Oligo 087] | −0.03
AAAAAAACUAUAAAAAAAA (RNA, backbone not given here) [ANP-Oligo 088] | 0.3
AAAAAAACUCCAAAAAAAA (RNA, backbone not given here) [ANP-Oligo 089] | −0.42
AAAAAAACUCGAAAAAAAA (RNA, backbone not given here) [ANP-Oligo 090] | −0.54
AAAAAAACUCUAAAAAAAA (RNA, backbone not given here) [ANP-Oligo 091] | −0.33
AAAAAAACUGCAAAAAAAA (RNA, backbone not given here) [ANP-Oligo 092] | 0
AAAAAAACUGGAAAAAAAA (RNA, backbone not given here) [ANP-Oligo 093] | −0.31
AAAAAAACUGUAAAAAAAA (RNA, backbone not given here) [ANP-Oligo 094] | 0.9
AAAAAAACUUCAAAAAAAA (RNA, backbone not given here) [ANP-Oligo 095] | −0.39
AAAAAAACUUGAAAAAAAA (RNA, backbone not given here) [ANP-Oligo 096] | −0.14
AAAAAAACUUUAAAAAAAA (RNA, backbone not given here) [ANP-Oligo 097] | −0.1
AAAAAAAGAACAAAAAAAA (RNA, backbone not given here) [ANP-Oligo 098] | −0.6
AAAAAAAGAAGAAAAAAAA (RNA, backbone not given here) [ANP-Oligo 099] | −0.61

Substance | Adjusted IL-12 index Mean
AAAAAAAGAAUAAAAAAAA (RNA, backbone not given here) [ANP-Oligo 100] | 0.01
AAAAAAAGACCAAAAAAAA (RNA, backbone not given here) [ANP-Oligo 101] | −0.6
AAAAAAAGACGAAAAAAAA (RNA, backbone not given here) [ANP-Oligo 102] | −0.64
AAAAAAAGACUAAAAAAAA (RNA, backbone not given here) [ANP-Oligo 103] | −0.25
AAAAAAAGAGCAAAAAAAA (RNA, backbone not given here) [ANP-Oligo 104] | −0.61
AAAAAAAGAGGAAAAAAAA (RNA, backbone not given here) [ANP-Oligo 105] | −0.62
AAAAAAAGAGUAAAAAAAA (RNA, backbone not given here) [ANP-Oligo 106] | 0.21
AAAAAAAGAUCAAAAAAAA (RNA, backbone not given here) [ANP-Oligo 107] | −0.2
AAAAAAAGAUGAAAAAAAA (RNA, backbone not given here) [ANP-Oligo 108] | 0.08
AAAAAAAGAUUAAAAAAAA (RNA, backbone not given here) [ANP-Oligo 109] | 0.22
AAAAAAAGCACAAAAAAAA (RNA, backbone not given here) [ANP-Oligo 110] | −0.58
AAAAAAAGCAGAAAAAAAA (RNA, backbone not given here) [ANP-Oligo 111] | −0.32
AAAAAAAGCAUAAAAAAAA (RNA, backbone not given here) [ANP-Oligo 112] | 0.08
AAAAAAAGCCCAAAAAAAA (RNA, backbone not given here) [ANP-Oligo 113] | −0.54
AAAAAAAGCCGAAAAAAAA (RNA, backbone not given here) [ANP-Oligo 114] | −0.58
AAAAAAAGCCUAAAAAAAA (RNA, backbone not given here) [ANP-Oligo 115] | 0.15
AAAAAAAGCGCAAAAAAAA (RNA, backbone not given here) [ANP-Oligo 116] | −0.58
AAAAAAAGCGGAAAAAAAA (RNA, backbone not given here) [ANP-Oligo 117] | −0.63
